According to patent publication US9227971B2, “Pyrazolo[1,5-a]pyrimidine compounds as mTOR inhibitors” (Merck Sharp & Dohme Corp., priority 2010, dated 2016):
Where two headings read alike, the source gives them in different places.

What was measured:
[1] = system: phosphorylated 4E-BP1 Thr37/46 (p4E-BP1 Thr37/46), mTORC1 activity, PC3 cells; test: mTOR target engagement assay, immunofluorescent cell-based, p4E-BP1 Thr37/46 readout (mTORC1 activity); conditions: read-out: p4E-BP1 Thr37/46 IC50
Method in brief: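 Seed PC3 cells overnight; treat with compound dilutions for ninety minutes at 37° C; fix with glyoxal and block; stain with anti-p4E-BP1 Thr37/46 overnight at 4° C, then fluorescent secondary; read fluorescence and fit IC50 against DMSO-only controls.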

[2] = system: phosphorylated AKT Ser473 (pAKT S473), mTORC2 activity, PC3 cells; test: mTOR target engagement assay, immunofluorescent cell-based, pAKT S473 readout (mTORC2 activity)
Method in brief: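 After blocking, cells were stained overnight at 4 °C with anti-pAKT S473 antibody, then a fluorescent secondary; inhibition was read as reduced fluorescence intensity.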

[3] = Homo sapiens, PC-3, Table 3-1, PC3 cells
[4] = Homo sapiens, PC-3, PC3 cells, compound treatment ninety minutes at 37° C.
[5] = Homo sapiens, PC-3, Table 6-1, PC3 cells

Row | SMILES | IC50 [1, 3] | IC50 [2, 3] | other results
1 | CS(=O)(=O)c1c([C@@H]2C[C@H]3CC[C@@H](C2)N3C=O)nc2c(-c3ccc(-c4ccccc4)nc3)cnn2c1N [Compound 3.19, (1R,3s,5S)-3-(7-amino-6-(methylsulfonyl)-3-(6-phenylpyridin-3-yl)pyrazolo[1,5-a]pyrimidin-5-yl)-8-azabicyclo[3.2.1]octane-8-carbaldehyde] | 100 to 1000 nM | 100 to 1000 nM | –
2 | COc1ccc(-c2ccc(-c3cnn4c(N)c(S(C)(=O)=O)c([C@@H]5C[C@H]6CC[C@@H](C5)N6C(=O)c5nnc[nH]5)nc34)cn2)cc1F [Compound 3.37, ((1R,3s,5S)-3-(7-amino-3-(6-(3-fluoro-4-methoxyphenyl)pyridin-3-yl)-6-(methylsulfonyl)pyrazolo[1,5-a]pyrimidin-5-yl)-8-azabicyclo[3.2.1]octan-8-yl)(4H-1,2,4-triazol-3-yl)methanone] | 1 to 100 nM | 1 to 100 nM | –
3 | CCc1c([C@@H]2C[C@H]3CC[C@@H](C2)N3C(=O)c2nc(C)n[nH]2)nc2c(-c3ccc(-c4ccccc4)nc3)cnn2c1N [Compound 5.9, ((1R,3s,5S)-3-(7-amino-6-ethyl-3-(6-phenylpyridin-3-yl)pyrazolo[1,5-a]pyrimidin-5-yl)-8-azabicyclo[3.2.1]octan-8-yl)(3-methyl-1H-1,2,4-triazol-5-yl)methanone] | – | – | IC50 [1, 4]: 1 to 100 nM; IC50 [2, 4]: 1 to 100 nM
4 | CS(=O)(=O)c1c([C@@H]2C[C@H]3CC[C@@H](C2)N3)nc2c(-c3ccc(-c4ccccc4)nc3)cnn2c1N [Compound 3.202, 5-((1R,3s,5S)-8-azabicyclo[3.2.1]octan-3-yl)-6-(methylsulfonyl)-3-(6-phenylpyridin-3-yl)pyrazolo[1,5-a]pyrimidin-7-amine] | 1000 to 10000 nM | 1000 to 10000 nM | –
5 | CC(=O)c1c([C@@H]2C[C@H]3CC[C@@H](C2)N3C(=O)c2nnc[nH]2)nc2c(-c3ccc(NC4CC4)nc3)cnn2c1N [Compound 8.47, 1-(5-((1R,3s,5S)-8-(4H-1,2,4-triazole-3-carbonyl)-8-azabicyclo[3.2.1]octan-3-yl)-7-amino-3-(6-(cyclopropylamino)pyridin-3-yl)pyrazolo[1,5-a]pyrimidin-6-yl)ethanone] | – | – | IC50 ([1]; PC3 cells): 1 to 100 nM; IC50 ([2]; PC3 cells): 1 to 100 nM
6 | CS(=O)(=O)c1c([C@@H]2C[C@H]3CC[C@@H](C2)N3C(=O)c2coc(=O)[nH]2)nc2c(-c3ccc(-c4ccccc4)nc3)cnn2c1N [Compound 3.138, 4-((1R,3s,5S)-3-(7-amino-6-(methylsulfonyl)-3-(6-phenylpyridin-3-yl)pyrazolo[1,5-a]pyrimidin-5-yl)-8-azabicyclo[3.2.1]octane-8-carbonyl)oxazol-2(3H)-one] | 100 to 1000 nM | 100 to 1000 nM | –
7 | Nc1cc([C@@H]2C[C@H]3CC[C@@H](C2)N3C(=O)[C@@H]2CCCN2)nc2c(-c3ccc(-c4ccccc4)nc3)cnn12 [Compound 2.20] | – | – | IC50 [1, 4]: 1000 to 10000 nM; IC50 [2, 4]: 1000 to 10000 nM
8 | CC(=O)c1c([C@@H]2C[C@H]3CC[C@@H](C2)N3C(=O)CO)nc2c(-c3ccc(-c4nccs4)nc3)cnn2c1N [Compound 1.1.33, 1-((1R,3s,5S)-3-(6-acetyl-7-amino-3-(6-(thiazol-2-yl)pyridin-3-yl)pyrazolo[1,5-a]pyrimidin-5-yl)-8-azabicyclo[3.2.1]octan-8-yl)-2-hydroxyethanone] | – | – | IC50 [1, 4]: 100 to 1000 nM; IC50 [2, 4]: 1 to 100 nM
9 | CCOc1ccc(-c2ccc(-c3cnn4c(N)c(S(C)(=O)=O)c([C@@H]5C[C@H]6CC[C@@H](C5)N6C(=O)c5nnc[nH]5)nc34)cn2)cc1 [Compound 3.60, ((1R,3s,5S)-3-(7-amino-3-(6-(4-ethoxyphenyl)pyridin-3-yl)-6-(methylsulfonyl)pyrazolo[1,5-a]pyrimidin-5-yl)-8-azabicyclo[3.2.1]octan-8-yl)(4H-1,2,4-triazol-3-yl)methanone] | 1 to 100 nM | 1 to 100 nM | –
10 | CS(=O)(=O)c1c([C@@H]2C[C@H]3CC[C@@H](C2)N3C(N)=O)nc2c(-c3ccc(-c4ccccc4)nc3)cnn2c1N [Compound 3.10, (1R,3s,5S)-3-(7-amino-6-(methylsulfonyl)-3-(6-phenylpyridin-3-yl)pyrazolo[1,5-a]pyrimidin-5-yl)-8-azabicyclo[3.2.1]octane-8-carboxamide] | 1 to 100 nM | 1 to 100 nM | –
11 | Cc1nnc(C(=O)N2[C@@H]3CC[C@H]2C[C@H](c2nc4c(-c5ccc(-c6ccc(F)cc6F)nc5)cnn4c(N)c2S(C)(=O)=O)C3)[nH]1 [Compound 3.127, ((1R,3s,5S)-3-(7-amino-3-(6-(2,4-difluorophenyl)pyridin-3-yl)-6-(methylsulfonyl)pyrazolo[1,5-a]pyrimidin-5-yl)-8-azabicyclo[3.2.1]octan-8-yl)(5-methyl-4H-1,2,4-triazol-3-yl)methanone] | 1 to 100 nM | 100 to 1000 nM | –
12 | CS(=O)(=O)c1c([C@@H]2C[C@H]3CC[C@@H](C2)N3C(=O)c2nnc[nH]2)nc2c(-c3ccc(-c4cccc(F)c4F)nc3)cnn2c1N [Compound 3.47, ((1R,3s,5S)-3-(7-amino-3-(6-(2,3-difluorophenyl)pyridin-3-yl)-6-(methylsulfonyl)pyazolo[1,5-a]pyrimidin-5-yl)-8-azabicyclo[3.2.1]octan-8-yl)(4H-1,2,4-triazol-3-yl)methanone] | 1 to 100 nM | 1 to 100 nM | –
13 | COc1ccc(-c2ccc(-c3cnn4c(N)c(S(C)(=O)=O)c([C@@H]5C[C@H]6CC[C@@H](C5)N6C(=O)CO)nc34)cn2)cc1 [Compound 3.36, 1-((1R,3s,5S)-3-(7-amino-3-(6-(4-methoxphenyl)pyridin-3-yl)-6-(methylsulfonyl)pyrazolo[1,5-a]pyrimidin-5-yl)-8-azabicyclo[3.2.1]octan-8-yl)-2-hydroxyethanone] | 1 to 100 nM | 1 to 100 nM | –
14 | CS(=O)(=O)c1c([C@@H]2C[C@H]3CC[C@@H](C2)N3C(=O)c2cc(C(F)(F)F)n[nH]2)nc2c(-c3ccc(-c4ccccc4)nc3)cnn2c1N [Compound 3.73, ((1R,3s,5S)-3-(7-amino-6-(methylsulfonyl)-3-(6-phenylpyridin-3-yl)pyrazolo[1,5-a]pyrimidin-5-yl)-8-azabicyclo[3.2.1]octan-8-yl)(3-(trifluoromethyl)-1H-pyrazol-5-yl)methanone] | > 10000 nM | 1000 to 10000 nM | –
15 | CC(=O)c1c([C@@H]2C[C@H]3CC[C@@H](C2)N3C(N)=O)nc2c(-c3ccc(-c4ncc[nH]4)nc3)cnn2c1N [Compound 6.30, (1R,3s,5S)-3-(3-(6-(1H-imidazol-2-yl)pyridin-3-yl)-6-acetyl-7-aminopyrazolo[1,5-a]pyrimidin-5-yl)-8-azabicyclo[3.2.1]octane-8-carboxamide] | – | – | IC50 [1, 5]: 1 to 100 nM; IC50 [2, 5]: 1 to 100 nM
16 | Cc1n[nH]c(C(=O)N2[C@@H]3CC[C@H]2C[C@H](c2nc4c(-c5ccc(C6(O)CCC6)nc5)cnn4c(N)c2S(C)(=O)=O)C3)n1 [Compound 7.29, ((1R,3s,5S)-3-(7-amino-3-(6-(1-hydroxycyclobutyl)pyridin-3-yl)-6-(methylsulfonyl)pyrazolo[1,5-a]pyrimidin-5-yl)-8-azabicyclo[3.2.1]octan-8-yl)(3-methyl-1H-1,2,4-triazol-5-yl)methanone] | – | – | IC50 ([1]; Table 7-2, PC3 cells): 100 to 1000 nM; IC50 ([2]; Table 7-2, PC3 cells): 100 to 1000 nM
17 | CNC(=O)N1[C@@H]2CC[C@H]1C[C@H](c1nc3c(-c4ccc(-c5ccccc5)nc4)cnn3c(N)c1C1CC1)C2 [Compound 4.4, (1R,3a,5S)-3-(7-amino-6-cyclopropyl-3-(6-phenylpyridin-3-yl)pyrazolo[1,5-a]pyrimidin-5-yl)-N-methyl-8-azabicyclo[3.2.1]octane-8-carboxamide] | – | – | IC50 [1, 4]: 100 to 1000 nM; IC50 [2, 4]: 1 to 100 nM
18 | CC(=O)NCC(=O)N1[C@@H]2CC[C@H]1C[C@H](c1nc3c(-c4ccc(-c5ccccc5)nc4)cnn3c(N)c1S(C)(=O)=O)C2 [Compound 3.203, N-(2-((1R,3s,5S)-3-(7-amino-6-(methylsulfonyl)-3-(6-phenylpyridin-3-yl)pyrazolo[1,5-a]pyrimidin-5-yl)-8-azabicyclo[3.2.1]octan-8-yl)-2-oxoethyl)acetamide] | 1 to 100 nM | 1 to 100 nM | –
19 | CS(=O)(=O)c1c([C@@H]2C[C@H]3CC[C@@H](C2)N3C(=O)CO)nc2c(-c3ccc(-c4ncc[nH]4)cc3)cnn2c1N [Compound 6.35, 1-((1R,3s,5S)-3-(3-(4-(1H-imidazol-2-yl)phenyl)-7-amino-6-(methylsulfonyl)pyrazolo [1,5-a]pyrimidin-5-yl)-8-azabicyclo[3.2.1]octan-8-yl)-2-hydroxyethanone] | – | – | IC50 [1, 5]: 100 to 1000 nM; IC50 [2, 5]: 1 to 100 nM
20 | CS(=O)(=O)c1c([C@@H]2C[C@H]3CC[C@@H](C2)N3C(=O)c2nnc[nH]2)nc2c(-c3cnn(-c4ccc(F)cc4)c3)cnn2c1N [Compound 3.88, ((1R,3s,5S)-3-(7-amino-3-(1-(4-fluorophenyl)-1H-pyrazol-4-yl)-6-(methyslulfonyl)pyrazolo[1,5-a]pyrimidin-5-yl)-8-azabicyclo[3.2.1]octan-8-yl)(4H-1,2,4-triazol-3-yl)methanone] | 1000 to 10000 nM | 100 to 1000 nM | –
21 | Nc1c(C2CC2)c([C@@]2(O)C[C@H]3CC[C@@H](C2)N3C(=O)c2nnc[nH]2)nc2c(-c3ccc(-c4ccccc4)nc3)cnn12 [Compound 8.25, ((1R,3s,5S)-3-(7-amino-6-cyclopropyl-3-(6-phenylpyridin-3-yl)pyrazolo[1,5-a]pyrimidin-5-yl)-3-hydroxy-8-azabicyclo[3.2.1]octan-8-yl)(4H-1,2,4-triazol-3-yl)methanone] | – | – | IC50 ([1]; Homo sapiens, PC-3, PC3 cells): 1000 to 10000 nM; IC50 ([2]; Homo sapiens, PC-3, PC3 cells): 100 to 1000 nM
